System: MEF/GFP-Stat3α cells
Experiment: High-throughput fluorescence microscopy (HTFM) cytoplasmic-to-nuclear translocation of GFP-Stat3α
Assay type: cell-based, murine
Settings: Mus musculus, 0.5 h; Table 4; MEF/GFP-Stat3α, IL-6 200 ng/ml and IL-6sR 250 ng/ml 30 min; read-out: HTM IC50
Experimental: Coverslips were examined by confocal fluorescent microscopy using filters to detect GFP (column one), DAPI (column two) or both (merge; column three). In panel B, MEF-GFP-Stat3 cells were grown in 96-well plates with optical glass bottoms and pretreated with the indicated compound at the indicated concentrations in quadruplicate for 1 hour then stimulated with IL-6 (200 ng/ml) and IL-6sR (250 ng/ml) for 30 minutes. Cells were fixed and the plates were examined by high-throughput microscopy to determine the fluorescence intensity in the nucleus (FLIN) and the % ΔFLINMax was calculated as described in Example 1. Data shown are mean±SD and are representative of 2 or more studies. Best-fit curves were generated based on 4 Parameter Logistic Model/Dose Response One Site/XLfit 4.2, IDBS and were used to calculate IC50 (Table 1).
Confocal and high-throughput fluorescence microscopy. Confocal and highthroughput fluorescence microscopy (HTFM) of MEF/GFP-Stat3α cells were performed as described (Huang et al., 2007). Briefly, for confocal fluorescence microscopy, cells were grown in 6-well plates containing a cover slip. For HTFM, cells were seeded into 96-well CC3 plates at a density of 5,000 cells/well using an automated plating system. Cells were cultured under standard conditions until 85-90% confluent. Cells were pretreated with compound for 1 hour at 37° C. then stimulated with IL-6 (200 ng/ml) and IL-6sR (250 ng/ml) for 30 minutes. […] Plates were analyzed by automated HTFM using the Cell Lab IC Image Cytometer (IC100) platform and CytoshopVersion 2.1 analysis software (Beckman Coulter). Nuclear translocation is quantified by using the fraction localized in the nucleus (FLIN) measurement (Sharp et al., 2006). […]
EXP IIB. High throughput fluorescence microscopy (HTFM), cytoplasm-to-nucleus translocation inhibition assays. […] Plates are analyzed by automated HTFM using the Cell Lab IC Image Cytometer (IC100) platform and CytoshopVersion 2.1 analysis software (Beckman Coulter). […]

SMILES | IC50 [µM]
CCOc1cc(C=C2C(=O)c3ccccc3C2=O)cc(Cl)c1OCc1cccc(C(=O)O)c1 [Cpd3-2, 3-({2-chloro-4-[(1,3-dioxo-1,3-dihydro-2H-inden-2-ylidene)methyl]-6-ethoxyphenoxy}methyl)benzoic acid] | 150
O=C(O)c1ccc(C=CC(=O)c2ccc3c(c2)OCCO3)cc1 [Cpd3, 4-[3-(2,3-dihydro-1,4-benzodioxin-6-yl)-3-oxo-1-propen-1-yl]benzoic acid] | 131
